Reference: ChEMBL document CHEMBL1138506, “Exploration of structure-activity relationship determinants in analogue series” (J Med Chem, 2009)

The compounds below were run against T1, Peroxisomal multifunctional enzyme type 2 (Homo sapiens) (UniProt P51659) (assay: Inhibition of hydroxysteroid-17-beta dehydrogenase 4).
T1 sequence (whole entry): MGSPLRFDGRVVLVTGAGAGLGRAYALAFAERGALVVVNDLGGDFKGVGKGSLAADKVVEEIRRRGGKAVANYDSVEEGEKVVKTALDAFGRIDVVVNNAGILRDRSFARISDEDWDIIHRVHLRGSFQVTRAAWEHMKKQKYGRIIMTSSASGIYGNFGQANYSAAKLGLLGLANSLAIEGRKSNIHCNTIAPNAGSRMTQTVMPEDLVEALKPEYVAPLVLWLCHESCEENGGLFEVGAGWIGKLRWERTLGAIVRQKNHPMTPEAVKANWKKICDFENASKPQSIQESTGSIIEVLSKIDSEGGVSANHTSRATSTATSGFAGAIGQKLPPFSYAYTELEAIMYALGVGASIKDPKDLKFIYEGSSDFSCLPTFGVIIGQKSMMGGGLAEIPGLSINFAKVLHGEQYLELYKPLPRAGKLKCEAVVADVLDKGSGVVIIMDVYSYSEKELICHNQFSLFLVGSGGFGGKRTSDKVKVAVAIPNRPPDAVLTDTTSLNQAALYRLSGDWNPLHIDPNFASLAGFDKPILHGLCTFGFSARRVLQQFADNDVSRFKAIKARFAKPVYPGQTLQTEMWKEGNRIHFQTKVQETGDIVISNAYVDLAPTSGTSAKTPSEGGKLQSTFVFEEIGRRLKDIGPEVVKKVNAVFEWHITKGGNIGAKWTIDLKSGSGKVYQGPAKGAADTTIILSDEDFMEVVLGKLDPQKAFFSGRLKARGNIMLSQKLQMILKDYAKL

**Q.** Which Activity does the source give for `CC(=O)C(C)Oc1ccc2c3c(c(=O)oc2c1)CCCCC3` (stereo not given) here?
**A.** 25 µM

**Q.** `CC(=O)COc1ccc2c3c(c(=O)oc2c1C)CCCCC3` was tested. Which Activity did it give?
**A.** 13 µM

**Q.** Which Activity does the source give for `COC(=O)C(C)Oc1ccc2c3c(c(=O)oc2c1)CCCCC3` (stereo not given) here?
**A.** 32 µM

**Q.** Which Activity does the source give for `NC(=O)COc1ccc2c3c(c(=O)oc2c1)CCCCC3` here?
**A.** 25 µM

The compounds below were run against Prothrombin (Homo sapiens) (UniProt P00734) (assay: Inhibition of human thrombin).

**Q.** `CSc1nc(-c2ccco2)nn1C(=O)c1ccc(C)cc1` was tested. Which Activity did it give?
**A.** 159 nM

**Q.** How did the Activity turn out when `Nc1nc(-c2ccco2)nn1C(=O)c1ccccc1` was run?
**A.** 926 nM

**Q.** For `COc1ccc(C(=O)n2nc(-c3ccco3)nc2SC)cc1OC`, which Activity is on record?
**A.** 204 nM

**Q.** With `COc1ccccc1C(=O)n1nc(-c2ccco2)nc1N` as the compound, how does the Activity read?
**A.** 6930 nM

**Q.** With `Nc1nc(-c2ccco2)nn1C(=O)c1ccccc1Cl` as the compound, how does the Activity read?
**A.** 14000 nM

**Q.** Which Activity does the source give for `Nc1nc(-c2ccco2)nn1C(=O)c1ccc(Cl)cc1` here?
**A.** 1460 nM

**Q.** Which Activity does the source give for `COc1ccc(C(=O)n2nc(-c3ccco3)nc2N)cc1` here?
**A.** 828 nM

**Q.** Which Activity does the source give for `COc1ccc(C(=O)n2nc(-c3ccco3)nc2N)cc1OC` here?
**A.** 2230 nM

**Q.** Which Activity does the source give for `CSc1nc(-c2ccco2)nn1C(=O)c1ccccc1` here?
**A.** 82 nM

**Q.** `Cc1ccc(C(=O)n2nc(-c3ccco3)nc2N)cc1` was tested. Which Activity did it give?
**A.** 741 nM

**Q.** With `COc1ccccc1C(=O)n1nc(-c2ccco2)nc1SC` as the compound, how does the Activity read?
**A.** 1 nM

These compounds were tested against Cytochrome P450 3A4 (Homo sapiens, UniProt P08684) (assay: Inhibition of human CYP3A4).
Cytochrome P450 3A4, sequence (P08684 whole entry): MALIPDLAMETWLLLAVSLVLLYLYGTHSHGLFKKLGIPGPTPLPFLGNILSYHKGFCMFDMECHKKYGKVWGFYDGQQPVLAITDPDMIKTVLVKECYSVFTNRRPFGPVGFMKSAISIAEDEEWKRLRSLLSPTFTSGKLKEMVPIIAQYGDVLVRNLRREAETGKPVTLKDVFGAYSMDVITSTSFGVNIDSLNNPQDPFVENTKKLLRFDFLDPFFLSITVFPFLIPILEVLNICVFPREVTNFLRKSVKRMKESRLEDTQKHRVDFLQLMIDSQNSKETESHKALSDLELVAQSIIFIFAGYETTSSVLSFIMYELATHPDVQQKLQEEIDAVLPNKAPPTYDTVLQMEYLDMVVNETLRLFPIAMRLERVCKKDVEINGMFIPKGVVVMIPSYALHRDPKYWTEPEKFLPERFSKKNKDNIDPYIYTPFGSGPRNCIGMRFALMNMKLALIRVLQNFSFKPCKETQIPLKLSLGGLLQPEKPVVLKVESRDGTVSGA
Assay type: ADME

**Q.** Which Activity does the source give for `COc1ccccc1CNc1ncncc1-c1ccccc1C(F)(F)F` here?
**A.** 79 µM

**Q.** Which Activity does the source give for `COc1ccccc1CNc1ncnc2ccc(-c3ccc(C(=O)N(C)C)cc3)cc12` here?
**A.** 10 µM

**Q.** `COc1ccccc1CNc1ncnc2ccc(-c3ccccc3CN(C)C)cc12` was tested. Which Activity did it give?
**A.** 12.6 µM

**Q.** Which Activity does the source give for `COc1ccc(CNc2ncncc2-c2ccccc2CN(C)C)c(OC)c1` here?
**A.** 398 µM

**Q.** Which Activity does the source give for `COc1ccc(CNc2ncncc2-c2ccccc2C)c(OC)c1` here?
**A.** 398 µM

**Q.** Which Activity does the source give for `Cc1cccc(CNc2ncncc2-c2ccc(C(=O)N(C)C)cc2)c1` here?
**A.** 631 µM

**Q.** With `COc1ccc(CNc2ncnc3ccc(-c4ccc(C(=O)N(C)C)cc4)cc23)c(OC)c1` as the compound, how does the Activity read?
**A.** 2.5 µM

**Q.** `CN(C)C(=O)c1ccc(-c2ccc3ncnc(NCc4ccccc4)c3c2)cc1` was tested. Which Activity did it give?
**A.** 15.8 µM

**Q.** With `COc1ccc(CNc2ncncc2-c2cccc(NS(C)(=O)=O)c2)c(OC)c1` as the compound, how does the Activity read?
**A.** 251 µM

**Q.** How did the Activity turn out when `COc1ccc(CNc2ncncc2-c2ccc(C(=O)N(C)C)cc2)c(OC)c1` was run?
**A.** 501 µM

**Q.** For `COc1cccc(-c2cncnc2NCc2ccccc2OC)c1`, which Activity is on record?
**A.** 501 µM

**Q.** With `Cc1cccc(CNc2ncncc2-c2cccc(NS(C)(=O)=O)c2)c1` as the compound, how does the Activity read?
**A.** 158 µM

**Q.** For `COc1ccc(CNc2ncncc2-c2ccccc2OC)c(OC)c1`, which Activity is on record?
**A.** 316 µM

**Q.** `COc1ccccc1CNc1ncnc2ccc(-c3cccc(NS(C)(=O)=O)c3)cc12` was tested. Which Activity did it give?
**A.** 3.2 µM

**Q.** Which Activity does the source give for `CN(C)Cc1ccccc1-c1ccc2ncnc(NCc3ccccc3)c2c1` here?
**A.** 15.8 µM

**Q.** For `COc1ccc(CNc2ncncc2-c2ccc(N(C)C)cc2)c(OC)c1`, which Activity is on record?
**A.** 199 µM

**Q.** `CS(=O)(=O)Nc1cccc(-c2cncnc2NCc2ccccc2)c1` was tested. Which Activity did it give?
**A.** 631 µM

**Q.** With `COc1ccc(CNc2ncncc2-c2cccc(C#N)c2)c(OC)c1` as the compound, how does the Activity read?
**A.** 316 µM

**Q.** `COc1cccc(-c2cncnc2NCc2ccccc2)c1` was tested. Which Activity did it give?
**A.** 316 µM

**Q.** For `COc1ccc(CNc2ncnc3ccc(-c4ccccc4CN(C)C)cc23)c(OC)c1`, which Activity is on record?
**A.** 8 µM

**Q.** How did the Activity turn out when `Cc1cccc(CNc2ncnc3ccc(-c4ccccc4C#N)cc23)c1` was run?
**A.** 1.2 µM

**Q.** With `Cc1cccc(CNc2ncncc2-c2ccccc2Cl)c1` as the compound, how does the Activity read?
**A.** 199 µM

**Q.** With `COc1ccccc1-c1cncnc1NCc1ccccc1` as the compound, how does the Activity read?
**A.** 251 µM

**Q.** For `COc1ccc(CNc2ncnc3ccc(-c4ccc(N(C)C)cc4)cc23)c(OC)c1`, which Activity is on record?
**A.** 4 µM

**Q.** How did the Activity turn out when `COc1ccc(CNc2ncnc3ccc(-c4cccc(C#N)c4)cc23)c(OC)c1` was run?
**A.** 1.6 µM

**Q.** Which Activity does the source give for `CN(C)C(=O)c1ccc(-c2cncnc2NCc2ccccc2)cc1` here?
**A.** 2512 µM

**Q.** Which Activity does the source give for `COc1ccccc1CNc1ncncc1-c1cccc(NS(C)(=O)=O)c1` here?
**A.** 251 µM

**Q.** For `COc1ccccc1CNc1ncncc1-c1ccc(C(=O)N(C)C)cc1`, which Activity is on record?
**A.** 2512 µM

**Q.** For `Cc1cccc(CNc2ncncc2-c2ccccc2C)c1`, which Activity is on record?
**A.** 398 µM

**Q.** For `COc1ccccc1-c1cncnc1NCc1cccc(C)c1`, which Activity is on record?
**A.** 100 µM

**Q.** For `Cc1cccc(CNc2ncncc2-c2cccc(C#N)c2)c1`, which Activity is on record?
**A.** 199 µM

**Q.** With `COc1ccccc1CNc1ncnc2ccc(-c3cccc(C#N)c3)cc12` as the compound, how does the Activity read?
**A.** 8 µM

**Q.** With `COc1ccc(CNc2ncncc2-c2ccccc2OC)cc1` as the compound, how does the Activity read?
**A.** 199 µM

**Q.** Which Activity does the source give for `N#Cc1cccc(-c2cncnc2NCc2ccccc2)c1` here?
**A.** 1259 µM

**Q.** How did the Activity turn out when `COc1ccccc1CNc1ncnc2ccc(-c3ccccc3C#N)cc12` was run?
**A.** 4 µM

**Q.** With `COc1cccc(-c2cncnc2NCc2ccc(OC)cc2OC)c1` as the compound, how does the Activity read?
**A.** 501 µM

**Q.** `COc1ccccc1CNc1ncncc1-c1ccccc1Cl` was tested. Which Activity did it give?
**A.** 199 µM

**Q.** How did the Activity turn out when `COc1ccc(CNc2ncnc3ccc(-c4cccc(NS(C)(=O)=O)c4)cc23)c(OC)c1` was run?
**A.** 2 µM

**Q.** How did the Activity turn out when `COc1ccccc1CNc1ncnc2ccc(-c3ccc(N(C)C)cc3)cc12` was run?
**A.** 2 µM

**Q.** `COc1ccc(CNc2ncnc3ccc(-c4ccccc4C#N)cc23)c(OC)c1` was tested. Which Activity did it give?
**A.** 1 µM

**Q.** With `COc1ccc(CNc2ncncc2-c2ccccc2C(F)(F)F)c(OC)c1` as the compound, how does the Activity read?
**A.** 316 µM

**Q.** Which Activity does the source give for `COc1ccc(CNc2ncnc3ccc(-c4ccccc4OC)cc23)c(OC)c1` here?
**A.** 2 µM

**Q.** `COc1cccc(-c2ccc3ncnc(NCc4ccc(OC)cc4OC)c3c2)c1` was tested. Which Activity did it give?
**A.** 2.5 µM

**Q.** Which Activity does the source give for `CN(C)c1ccc(-c2ccc3ncnc(NCc4ccccc4)c3c2)cc1` here?
**A.** 2.5 µM

**Q.** How did the Activity turn out when `Cc1ccccc1-c1cncnc1NCc1ccccc1` was run?
**A.** 316 µM

**Q.** How did the Activity turn out when `Cc1cccc(CNc2ncnc3ccc(-c4ccc(C(=O)N(C)C)cc4)cc23)c1` was run?
**A.** 2 µM

**Q.** `COc1ccccc1-c1ccc2ncnc(NCc3ccccc3)c2c1` was tested. Which Activity did it give?
**A.** 12.6 µM

**Q.** How did the Activity turn out when `COc1ccccc1CNc1ncnc2ccc(-c3ccccc3OC)cc12` was run?
**A.** 6.3 µM

**Q.** `COc1cccc(-c2cncnc2NCc2cccc(C)c2)c1` was tested. Which Activity did it give?
**A.** 398 µM

**Q.** For `Cc1cccc(CNc2ncncc2-c2ccccc2C(F)(F)F)c1`, which Activity is on record?
**A.** 79 µM
